One data set concerns the target T1, p53 Y220C (Homo sapiens, UniProt P04637, Y220C).
T1 construct: made in house; host or cells: E. coli
Put plainly: In vitro DNA binding activity assay (HTRF / TR-FRET) of recombinant His-tagged p53 Y220C DNA binding domain with biotin-labeled consensus DNA. The data set is classed as biochemical. The note with it: concentration required to increase DNA binding activity of p53 Y220C by 50%. The protocol: The ability of a compound of the disclosure to stabilize p53 Y220C and increase the DNA binding activity of p53 Y220C was measured by a homogeneous time-resolved fluorescence (HTRF) assay. Recombinant His-tagged p53 Y220C used in the HTRF assay was expressed in the bacterium E. coli. The recombinant protein was a truncation mutant containing only amino acids 94-312 of p53, which encompassed the DNA binding domain (DBD) of p53 (SEQ ID NO.: 1). The His-tagged p53 Y220C was tested for DNA binding ability with a consensus sequence of DNA (DNA duplex with a sequence of 5 ¢-[…]-3 ¢; SEQ ID NO.: 2). SEQ ID NO.: 2 was then conjugated with a biotin label and used in the activity assay.
The binding of the recombinant His-tagged p53 Y220C protein and the biotin-labeled consensus DNA was measured using fluorescence resonance energy transfer (FRET). For the FRET assay, the binding between the p53 mutant and the DNA sequence was measured by detecting the fluorescence of the interaction between an anti-His antibody conjugated to allophycocyanin (APC) and streptavidin conjugated to europium to detect the biotin-labeled DNA.
The test compounds were prepared as 4.5 mM stock solutions in dimethyl sulfoxide (DMSO). The compounds of the disclosure were used to test the stabilization of p53 Y220C and increase in DNA binding activity of p53 Y220C. The stock solutions were then serially diluted 3-fold in DMSO, and 1.2 μL of the diluted solutions was added to each well of a 384-well polypropylene black plate. 30 μL of a 181 nM solution of the recombinant His-tagged p53 Y220C protein and 12.1 nM of APC conjugated anti-His tag antibody in ice-cold Assay Buffer 1 (50 mM Tris-HCl, pH 7.4; 75 mM KCl; 0.75 mM DTT; and 0.2 mg/mL bovine serum albumin (BSA) was added to each well containing the test compounds.
As a background control, […] of Assay Buffer 1 containing 12.1 nM of APC anti-His antibody was also added into a second set of serially-diluted compound plates. […] The assay signals were monitored by reading excitation at 340 nm, and emission fluorescence at 615 nm and 665 nm on a plate reader.
Normalized time-resolved fluorescence resonance energy transfer (TR-FRET) assay signal (Rn) was calculated by the formula: Rn=[(A-Ba-CD)/(D-Bd)](Dc-Bd) where A was the fluorescence intensity of the sample at 665 nm; D was the fluorescence intensity of the sample at 615 nm; Ba and Bd were plate background readings at 665 nm and 615 nm, respectively; and Dc was the fluorescence intensity of 1.8 nM Eu-SA in the assay buffer at 615 nm.
The cross-talk factor (C) was determined by the following formula: C═(Ac—Ba)/(Dc-Bd) where Ac was the fluorescence intensity of 1.8 nM Eu-labeled anti-FLAG antibody in the assay buffer at 665 nm. […] The SC150 values were calculated using either Prism™ or ActivityBase™.
In general terms: TR-FRET usually uses a lanthanide donor and a delayed reading to cut background.

Data set [1] can be described thus: Pharmacokinetic analysis after single oral administration to male cynomolgus monkeys, with plasma levels of parent and glucuronidation metabolites. The note with it: cynomolgus monkey, in vivo, 25 mg/kg. As for the experimental part:
The pharmacokinetics (PK) of a deuterated compound and a comparator compound were measured following a 2-phase single oral (PO) administration to male cynomolgus monkeys. Compound and metabolite levels were monitored for up to 48 hours following dosing.
A group of 3 non-naïve male cynomolgus monkeys were used in this 2-phase study with a 5-day washout period between each phase. Animals in Phases 1 or 2 were administered the compounds by single oral administration at 25 mg/kg. The vehicle used for the oral studies was 2% (w/v) hydroxypropylcellulose (HPC) w/v in water [“vehicle” ]. Administration was PO in fasted (overnight) animals. […] The body weights of the animals were in the range from 2.28 to 3.32 kg for males on the dosing day of Phase 1. All animals received a single oral gavage administration in each Phase.
Compound formulations were prepared in accordance with the following procedure: 257.0 mg of Compound C (4-[3-[4-[[(3S,4R)-3-fluoro-1-methyl-4-piperidyl]amino]-1-(2,2,2-trifluoroethyl)indol-2-yl]prop-2-ynylamino]-N-methyl-3-(methoxy)benzamide) was added to a pre-calibrated beaker, manually mixed with 1 mL of vehicle, stirred for 5 min to generate homogenous opaque suspension. An additional 40 mL of vehicle was added with manual mixing, and stirred for 5 min to generate a homogenous opaque suspension. An additional 9.218 mL of vehicle was added, and stirred overnight to generate a homogenous opaque suspension. 260.3 mg of Compound 3 (4-[3-[4-[[(3S,4R)-3-fluoro-1-methyl-4-piperidyl]amino]-1-(2,2,2-trifluoroethyl)indol-2-yl]prop-2-ynylamino]-N-methyl-3-(trideuteriomethoxy)benzamide) was added to a pre-calibrated beaker, manually mixed test article with 49.978 mL of vehicle, stirred for 30 min to generate a homogenous opaque suspension. Formulations were stored at room temperature for up to 15 days after preparation.
The detailed dosing and sampling regimens are described in the following table.
The concentrations of the compounds in all dosing solutions were determined by UPLC-UV [ACQUITY UPLC, ACQUITY UPLC BEH C8 1.7 m 2.1×100 mm Column, Mobile phase A: 0.1% FA & 2 mM HCOONH4 in water/ACN (v:v, 95:5), Mobile phase B: 0.1% FA & 2 mM HCOONH4 in ACN/water (v:v, 95:5)]. Three aliquots were taken from the bottom, middle and top regions of PO dosing solutions.
Plasma samples were collected at 0.25, 0.5, 1, 2, 4, 8, 12, 24 and 48 hours post-dose in Phases 1 and 2. Blank Plasma: Whole blood was collected from available stock animal into commercially available tubes containing K2-EDTA on wet ice and processed for plasma. The plasma was pooled to serve as blank monkey plasma. PK plasma: Approximately 0.5 mL of blood was collected at each time point via peripheral vessel from each study animal. The actual time for each sample collection was recorded. The deviations on sampling time were less than 1 minute for the time points pre-dose through 1 hour post-dose, and less than 5% of the nominal time for time points after 1 hour post-dose. All blood samples were transferred into commercial tube (Jiangsu Kangjian medical supplies Co., Ltd.) containing K2-EDTA (0.85-1.15 mg) and placed on wet ice until processed for plasma. Plasma samples were prepared within 1 hour of collection by centrifuging the blood samples at approximately 2-8° C., 3200×g for 10 minutes. Plasma samples of about 0.1 mL×2 aliquots (one for BA, and the other one for back up) for each time point were transferred into labeled polypropylene micro-centrifuge tubes and stored frozen in a freezer set to be maintained at −60° C. or lower until LC-MS/MS analysis. Concentrations of the compounds and metabolite in plasma samples were determined by a liquid chromatography tandem mass spectrometry (LC-MS/MS) method [Triple Quad 6500 Plus, ESI (+) ionization mode, MRM detection mode]. The plasma concentration of the compounds and metabolites in study animals was subjected to a non-compartmental pharmacokinetic analysis by using the Phoenix WinNonlin software (version 6.3 or above, Pharsight). […]

Broadly, the half-life is the time in which the quantity being followed falls by half.

Turning to `[2H]C([2H])([2H])Oc1cc(S(C)(=O)=O)ccc1NCC#Cc1cc2c(N[C@@H]3CCN(C([2H])([2H])[2H])C[C@@H]3F)cccc2n1CC(F)(F)F` (racemic) [Compound 4, rac-N-[(3S,4R)-3-fluoro-1-(trideuteriomethyl)-4-piperidyl]-2-[3-[4-methylsulfonyl-2-(trideuteriomethoxy)anilino]prop-1-ynyl]-1-(2,2,2-trifluoroethyl)indol-4-ylamine], the SC150 result on p53 Y220C is reported as “+++ (+++ = 0 nM < SC150 < 10 nM)”.

As to `[2H]C([2H])([2H])Oc1cc(S(C)(=O)=O)ccc1NCC#Cc1cc2c(N[C@H]3CCN(C)C[C@H]3F)cccc2n1CC(F)(F)F` (racemic) [Compound 10, Rac-N-((3R,4S)-3-fluoro-1-methylpiperidin-4-yl)-2-(3-((2-(methoxy-d3)-4-(methylsulfonyl)phenyl)amino)prop-1-yn-1-yl)-1-(2,2,2-trifluoroethyl)-1H-indol-4-amine], the SC150 entry at p53 Y220C is recorded as “+++ (+++ = 0 nM < SC150 < 10 nM)”.

Regarding `[2H]C([2H])([2H])Oc1cc(C(=O)NC)ccc1NCC#Cc1cc2c(N[C@@H]3CCN(C)C[C@@H]3F)cccc2n1CC(F)(F)F` [Compound 3, 4-[3-[4-[[(3S,4R)-3-fluoro-1-methyl-4-piperidyl]amino]-1-(2,2,2-trifluoroethyl)indol-2-yl]prop-2-ynylamino]-N-methyl-3-(trideuteriomethoxy)benzamide], in data set [1], the “% of total analyte area, analyte Parent” value is given as 42.0%; the “AUC0-24 % Rel. to Cpd C value, analyte Parent” value was found to be 160%; the AUC(0-inf) is 118 µg·h/mL; the AUCExtra is 0.599%. In data set [1], the Cmax came out at 10000 ± 4180 ng/mL, the Tmax was 2 h, the half-life is 6.37 h and the “increase in AUC over Compound C” value is “about 60%”. Moreover, in data set [1], the “reduction in glucuronidation metabolite (first named)” value turned out to be 70% and the “reduction in glucuronidation metabolite (second named)” value is reported as 10%. In addition, in data set [1] (AUC0-24), the AUC(0-t) amounted to 107 ± 29.2 µg·h/mL. In addition, the AUC(0-t) in data set [1] (AUC0-24, analyte Parent) is 107 µg·h/mL. In addition, in data set [1] (AUC0-last), the AUC(0-t) stood at 118 µg·h/mL.

As to `[2H]C([2H])([2H])NC(=O)c1ccc(NCC#Cc2cc3c(N[C@@H]4CCN(C)C[C@@H]4F)cccc3n2CC(F)(F)F)c(OC)c1` [Compound 5, 4-[3-[4-[[(3S,4R)-3-fluoro-1-methyl-4-piperidyl]amino]-1-(2,2,2-trifluoroethyl)indol-2-yl]prop-2-ynylamino]-3-methoxy-N-(trideuteriomethyl)benzamide], at p53 Y220C, the SC150 result is on record as “++ (++ = 10 nM < SC150 < 50 nM)”.

Regarding `[2H]C([2H])([2H])NC(=O)c1ccc(NCC#Cc2cc3c(N[C@@H]4CCN(C)C[C@@H]4F)cccc3n2CC(F)(F)F)c(OC([2H])([2H])[2H])c1` [Compound 6, 4-[3-[4-[[(3S,4R)-3-fluoro-1-methyl-4-piperidyl]amino]-1-(2,2,2-trifluoroethyl)indol-2-yl]prop-2-ynylamino]-3-(trideuteriomethoxy)-N-(trideuteriomethyl)benzamide], the SC150 result on p53 Y220C was “+++ (+++ = 0 nM < SC150 < 10 nM)”.
